Source: US11261177B2, “Benzoxazinone derivatives useful as herbicides” (REDAG CROP PROTECTION LTD, priority 2017, dated 2022)

Key:
Type in all cases: in vivo
Lolium perenne [1] = assay: Pre-emergence herbicidal assay, 96 cell trays, glasshouse; conditions: 168 h, second trial (Table 2), Lollium, assessed 7 days after treatment, read-out: % control of plant growth; for pest or weed control at 200 g/ha: 0.2 kg/ha; for pest or weed control at 1000 g/ha: 1 kg/ha; for pest or weed control at 5000 g/ha: 5 kg/ha
Procedure, shortened: (§1)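 Compounds were applied at 0.2, 1 and 5 kg/ha in 25% acetone/75% water with 0.01% Tween 20, onto soil 1 day after sowing (pre-emergence) or sprayed on seedlings two weeks after sowing (post-emergence). Three replicates; glasshouse, uncontrolled conditions; % control of growth scored 7 days after treatment.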

[2] = tested on: Stellaria media—Chickweed; assay: as above; conditions: 168 h, second trial (Table 2), assessed 7 days after treatment, read-out: % control of plant growth; for pest or weed control at 200 g/ha: 0.2 kg/ha; for pest or weed control at 1000 g/ha: 1 kg/ha; for pest or weed control at 5000 g/ha: 5 kg/ha
Procedure, shortened: as §1

Lolium perenne [3] = assay: Post-emergence herbicidal assay, 96 cell trays, glasshouse; conditions: 168 h, second trial (Table 2), Lollium, assessed 7 days after treatment, read-out: % control of plant growth; for pest or weed control at 200 g/ha: 0.2 kg/ha; for pest or weed control at 1000 g/ha: 1 kg/ha; for pest or weed control at 5000 g/ha: 5 kg/ha
Procedure, shortened: as §1

[4] = tested on: Stellaria media—Chickweed; assay: as above; conditions: 168 h, second trial (Table 2), assessed 7 days after treatment, read-out: % control of plant growth; for pest or weed control at 200 g/ha: 0.2 kg/ha; for pest or weed control at 1000 g/ha: 1 kg/ha; for pest or weed control at 5000 g/ha: 5 kg/ha
Procedure, shortened: as §1

[5] = tested on: 2 weed species (Stellaria media—Chickweed and Lolium perenne); assay: Herbicidal activity screen, summary in words over both weed species; conditions: pre- and post-emergence, 0.2, 1 and 5 kg/ha
Method: The compounds were screened at three concentrations (0.2, 1 and 5 kg/ha) against 2 weed species (Stellaria media—Chickweed and Lolium perenne). The seeds were sown in the cells of 96 cell trays (4-6 seeds per cell). For the pre-emergence assay, 75 μL of a suspension of the test compound, at the above doses, was added on top of the soil 1 day after sowing. For the post-emergence assay, the seedlings were sprayed with 200 μL of a suspension of the test compound two weeks after sowing. The formulation used is 25% acetone and 75% water/0.01% Tween 20. Each treatment was replicated three times. The plants were kept in a glasshouse (uncontrolled conditions) and assessed 7 days after treatment. A small number of compounds were tested in a first trial. A larger number of compounds were tested in a second trial. The assessment was based on the % control of plant growth in each cell.

Row | Structure (SMILES) | pest or weed control at 200 g/ha (Lolium perenne [1]) [%] | pest or weed control at 1000 g/ha (Lolium perenne [1]) [%] | pest or weed control at 5000 g/ha (Lolium perenne [1]) [%] | pest or weed control at 200 g/ha [2] [%] | pest or weed control at 1000 g/ha [2] [%] | pest or weed control at 5000 g/ha [2] [%] | pest or weed control at 200 g/ha (Lolium perenne [3]) [%] | pest or weed control at 1000 g/ha (Lolium perenne [3]) [%] | pest or weed control at 5000 g/ha (Lolium perenne [3]) [%] | pest or weed control at 200 g/ha [4] [%] | pest or weed control at 1000 g/ha [4] [%] | pest or weed control at 5000 g/ha [4] [%] | herbicidal activity [5]
1 | C#CCN1C(=O)C2(CC2)Oc2cc(F)c(/N=c3\sc(=O)n4n3CCCC4)cc21 [Example 31, (Z)-7-Fluoro-6-((3-oxotetrahydro-1H,3H-[1,3,4]thiadiazolo[3,4-a]pyridazin-1-ylidene)amino)-4-(prop-2-yn-1-yl)spiro[benzo[b][1,4]oxazine-2,1′-cyclopropan]-3(4H)-one] | 80 to 100 | 80 to 100 | 80 to 100 | 80 to 100 | 80 to 100 | 80 to 100 | 80 to 100 | 80 to 100 | 80 to 100 | 80 to 100 | 80 to 100 | 80 to 100 | excellent herbicidal activity against all tested species
2 | COCCN1C(=O)C2(CC2)Oc2cc(F)c(N3C(=O)c4ccc(F)cc4C3=O)cc21 [Example 27] | 20 to 80 | 80 to 100 | 80 to 100 | 80 to 100 | 80 to 100 | 80 to 100 | 20 to 80 | 80 to 100 | 80 to 100 | 80 to 100 | 80 to 100 | 80 to 100 | excellent herbicidal activity against all tested species
3 | CCOC(=O)C(C)N1C(=O)C2(CC2)Oc2cc(F)c(N3C(=O)C4=C(CCCC4)C3=O)cc21 (stereo not shown) [Example 18] | 80 to 100 | 80 to 100 | 80 to 100 | 80 to 100 | 80 to 100 | 80 to 100 | 20 to 80 | 80 to 100 | 80 to 100 | 80 to 100 | 80 to 100 | 80 to 100 | excellent herbicidal activity against all tested species
4 | C#CCN1C(=O)C2(CC2)Oc2cc(F)c(N3C(=O)C4CCCN4C3=O)cc21 (stereo not shown) [Example 44, 2-(7-Fluoro-3-oxo-4-(prop-2-yn-1-yl)-3,4-dihydrospiro[benzo[b][1,4]oxazine-2,1′-cyclopropan]-6-yl)tetrahydro-1H-pyrrolo[1,2-c]imidazole-1,3(2H)-dione] | < 20 | 20 to 80 | 80 to 100 | 80 to 100 | 80 to 100 | 80 to 100 | 80 to 100 | 80 to 100 | 80 to 100 | 80 to 100 | 80 to 100 | 80 to 100 | excellent herbicidal activity against all tested species
5 | C#CCN1C(=O)C2(CC2)Oc2cc(F)c(N3C(=O)c4ccc(C)cc4C3=O)cc21 [Example 8] | 20 to 80 | 80 to 100 | 80 to 100 | 80 to 100 | 80 to 100 | 80 to 100 | 20 to 80 | 80 to 100 | 80 to 100 | 80 to 100 | 80 to 100 | 80 to 100 | excellent herbicidal activity against all tested species
6 | O=C1c2ccc(F)cc2C(=O)N1c1cc2c(cc1F)OC1(CC1)C(=O)N2CC1CC1 [Example 26] | 80 to 100 | 80 to 100 | 80 to 100 | 80 to 100 | 80 to 100 | 80 to 100 | 80 to 100 | 80 to 100 | 80 to 100 | 80 to 100 | 80 to 100 | 80 to 100 | excellent herbicidal activity against all tested species
7 | CCOC(=O)C(C)N1C(=O)C2(CC2)Oc2cc(F)c(N3C(=O)c4ccc(F)cc4C3=O)cc21 (stereo not shown) [Example 19] | 20 to 80 | 80 to 100 | 80 to 100 | 80 to 100 | 80 to 100 | 80 to 100 | 20 to 80 | 80 to 100 | 80 to 100 | 80 to 100 | 80 to 100 | 80 to 100 | excellent herbicidal activity against all tested species
